Like-named read-outs stand apart in the source and are kept apart here. Where a SMILES comes first, the peptide text is derived from it. [ ]: non-standard residue; d: D form. pGlu = O=C1CC[C@@H](C(=O)O)N1
Experiments:
[1] = Plasma concentrations of Nexvax2 peptides (UHPLC-MS/MS), pre-treatment and 45 minutes post-treatment; type: in vivo, human; conditions: 45 minutes after treatment at levels above 300 μg; almost all participants; LLOQ 2 ng/mL
Method: • Weekly Gastrointestinal Symptom Rating Scale (GSRS) scores, and relative change in plasma cytokine levels 4 hours after 150 microgram and higher doses. Plasma concentrations pre- and 45 min post-dose, and villous height to crypt depth ratio (VH:CrD) in 2nd part duodenal biopsies were assessed in Cohort 3.
Pharmacodynamics assessments included a 38plex assay to profile cytokine and chemokine concentrations in plasma before and up to 10 hours post-treatment at visits corresponding to administration of Nexvax2 at the previously determined maximum tolerated dose (150 μg) and at each of the higher dose levels. The percentage of leukocytes in whole blood that corresponded to T cells or helper, cytotoxic, regulatory, or activated (CCR6-positive) T cell subsets was estimated using epigenetic cell counting before and after dosing during the treatment period at times indicated. Pharmacokinetics of the three constituent peptides in Nexvax2 were assessed pre-treatment and 45 minutes post-treatment in cohort 3 at visits corresponding to dose levels 300 μg and above. Serum levels of anti-Nexvax2 antibodies were also assessed in cohort 3 at times shown. A four-week observational period followed the end of treatment visit.
Pharmacokinetics of Nexvax2 peptides was summarised by dose level and presented as mean (95% CI) plasma concentrations; correlation coefficients were used to compare the plasma concentrations of the Nexvax2 peptides. […] Data from cohorts 1 and 2 were analysed separately according to the Nexvax2 starting dose levels of 3 μg or 30 μg. […]
Blood was collected 30 minutes before and 45 minutes after study drug administration. […] Charles River Laboratories Ashland, LLC (Ashland, Ohio, USA) measured the concentrations of NPL001, NPL002, and NPL003. […] Reconstituted sample extracts were analysed with a UHPLC-MS/MS assay using a Waters Acquity® UPLC Peptide BEH C18 Column, 300 Å, 1.7-μm particle-size, 2.1×50 mm column (Waters Corporation, Milford, Mass., USA). […]

[2] = Solubility in normal saline at pH 7
[3] = pH 7

With CC[C@H](C)[C@H](NC(=O)[C@@H]1CCCN1C(=O)[C@H](CCC(N)=O)NC(=O)[C@H](CCC(=O)O)NC(=O)[C@@H]1CCCN1C(=O)[C@@H]1CCC(=O)N1)C(=O)N1CCC[C@H]1C(=O)N[C@@H](CCC(=O)O)C(=O)N[C@@H](CCC(N)=O)C(=O)N1CCC[C@H]1C(=O)N[C@@H](CCC(N)=O)C(=O)N1CCC[C@H]1C(=O)N[C@@H](Cc1ccc(O)cc1)C(=O)N1CCC[C@H]1C(=O)N[C@@H](CCC(N)=O)C(=O)N[C@@H](CCC(N)=O)C(N)=O [NPL003] the “Plasma concentration versus limit of quantification” value (“Plasma concentration versus limit” for short) [1] was “above the limit of quantification” and the solubility [2] was greater than 50 mg/mL.

With NC(=O)CC[C@H](NC(=O)[C@H](Cc1c[nH]c2ccccc12)NC(=O)[C@@H]1CCCN1C(=O)[C@H](Cc1ccccc1)NC(=O)[C@@H]1CCCN1C(=O)[C@H](CCC(N)=O)NC(=O)[C@H](CCC(=O)O)NC(=O)[C@@H]1CCCN1C(=O)[C@H](CCC(N)=O)NC(=O)[C@@H]1CCCN1C(=O)[C@H](Cc1ccccc1)NC(=O)[C@@H]1CCCN1C(=O)[C@H](CCC(N)=O)NC(=O)[C@@H]1CCC(=O)N1)C(=O)N1CCC[C@H]1C(N)=O [NPL002, (pE)QPFPQPEQPFPWQP-NH2] ([pGlu]QPFPQPEQPFPWQP-NH2) the “Plasma concentration versus limit” value [1] was “above the limit of quantification” and the solubility [2] was no more than 25 mg/mL.

In the case of CC(C)C[C@H](NC(=O)[C@@H]1CCC(=O)N1)C(=O)N[C@@H](CCC(N)=O)C(=O)N1CCC[C@H]1C(=O)N[C@@H](Cc1ccccc1)C(=O)N1CCC[C@H]1C(=O)N[C@@H](CCC(N)=O)C(=O)N1CCC[C@H]1C(=O)N[C@@H](CCC(=O)O)C(=O)N[C@@H](CC(C)C)C(=O)N1CCC[C@H]1C(=O)N[C@@H](Cc1ccc(O)cc1)C(=O)N1CCC[C@H]1C(=O)N[C@@H](CCC(N)=O)C(=O)N1CCC[C@H]1C(=O)N[C@@H](CCC(N)=O)C(N)=O [NPL001, (pE)LQPFPQPELPYPQPQ-NH2] ([pGlu]LQPFPQPELPYPQPQ-NH2), the “Plasma concentration versus limit” value [1] is reported as “above the limit of quantification” and the solubility [3] is reported as greater than 50 mg/mL.

From patent publication US20200397852A1, “DOSING REGIMENS FOR CELIAC DISEASE” (ImmusanT, Inc., priority 2017, published 2020)
